Test systems include DLD-1 colon; DMS 114 small cell lung; DMS 273 small cell lung; KM20L2 colon; M19-MEL melanoma; BT-549 breast; DU-145 prostate; HS 578T breast; MDA-MB-231 breast; MDA-MB-435; PC-3 prostate; T-47D breast.
What all share (assay): growth of human tumour cells (NCI), 48 h

Values joined by “and” are separate entries in the source; they are usually repeats but may differ in a detail not shown here. Equal entries are not always repeated.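 Cultured in 96-well plates, cells were exposed to test compound for 48 hours across five concentrations. The concentration for 50% growth inhibition is given as GI50. At the TGI there is no net growth.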

In the case of `CC1=NN(C(=O)c2ccc(C)cc2)C(=O)C1N=Nc1ccccc1C(=O)O` (stereo not given), the TGI in the assay on DLD-1 colon, in the assay with DMS 114 small cell lung, in the assay with DMS 273 small cell lung, with KM20L2 colon and with M19-MEL melanoma was above 100 µM each time.

As for `CCOc1cc(/C=C/C(=O)CC(=O)/C=C/c2ccc(OC(=O)CNCCN(CC)CC)c(OCC)c2)ccc1OC(=O)CNCCN(CC)CC`, the GI50 in the assay on BT-549 breast was 1.45 µM; with DU-145 prostate, 1.61 µM; in the assay on HS 578T breast, 2.19 µM; in the assay on MDA-MB-231 breast it was 2.08 µM; with MDA-MB-435, 1.56 µM; with PC-3 prostate it was 1.62 µM. The GI50 in the assay on T-47D breast is 6.41 µM. Also, the TGI amounted to 3.52 µM in the assay with BT-549 breast; 3.56 µM with DU-145 prostate; 6.43 µM with HS 578T breast; 6.08 µM with MDA-MB-231 breast; 6.31 µM in the assay on MDA-MB-435; 10.7 µM with PC-3 prostate. The TGI with T-47D breast is 45.4 µM.

In the case of `CCN(CC)C(=S)SSCCO`, the GI50 with BT-549 breast was 16 µM; in the assay with DU-145 prostate, 37.8 µM; with HS 578T breast, 16 µM; in the assay with MDA-MB-231 breast, 15.3 µM; in the assay with MDA-MB-435, 15.6 µM; in the assay on PC-3 prostate, 14.9 µM. Also, the GI50 in the assay on T-47D breast was 15.4 µM. Moreover, the TGI in the assay on BT-549 breast is 31.9 µM; with DU-145 prostate it was above 100 µM; with HS 578T breast, 34.7 µM; in the assay with MDA-MB-231 breast, 30.3 µM; with MDA-MB-435 it was 31.7 µM; with PC-3 prostate it was 28.1 µM. The molecule also came in with a TGI with T-47D breast of 34.2 µM.

With `Cc1ccc2oc3c(ccc(=O)n3C)c(=O)c2c1`, the TGI with DU-145 prostate, with HS 578T breast, with MDA-MB-231 breast, with MDA-MB-435, in the assay on PC-3 prostate and in the assay with T-47D breast was above 100 µM throughout.

`CO/C(=N\N=C(/c1ccccc1)C(F)(F)F)c1ccncc1`: the TGI in the assay on BT-549 breast, with DU-145 prostate, in the assay with HS 578T breast, in the assay on MDA-MB-231 breast, in the assay with MDA-MB-435 and with PC-3 prostate was above 100 µM in each case. This molecule showed a TGI with T-47D breast above 100 µM.

`N/C(=N\N=C/c1cc([N+](=O)[O-])cc([N+](=O)[O-])c1O)NO`: the TGI in the assay on DLD-1 colon was above 100 µM; with DMS 114 small cell lung it was above 100 µM; in the assay with DMS 273 small cell lung, above 43.3 µM; in the assay with KM20L2 colon, above 100 µM; with M19-MEL melanoma it was above 100 µM.

For `CC(C)(CC1(C)NC(=O)NC1=O)OCc1ccccc1` (stereo not given), the TGI with BT-549 breast, in the assay on DU-145 prostate, in the assay on HS 578T breast, in the assay on MDA-MB-231 breast, in the assay with MDA-MB-435 and with PC-3 prostate was above 100 µM in each case. For the same molecule, the TGI in the assay on T-47D breast was above 100 µM.

For `Fc1ccc(C(OCCN2CC3CC2CN3)c2ccc(F)cc2)cc1` (stereo not given), the TGI with BT-549 breast is above 100 µM; in the assay on DU-145 prostate, above 100 µM; with HS 578T breast it was above 100 µM; in the assay with MDA-MB-231 breast it was above 100 µM; in the assay with MDA-MB-435, 53.8 µM; in the assay with PC-3 prostate, above 100 µM. The molecule further yielded a TGI with T-47D breast above 100 µM.

For `CCOC(=O)[C@H]1Nc2c(cccc2[N+](=O)[O-])C2c3ccccc3CC21` (stereo not given in full), the TGI in the assay with DLD-1 colon, in the assay with DMS 114 small cell lung, in the assay with DMS 273 small cell lung, with KM20L2 colon and in the assay on M19-MEL melanoma was above 100 µM in each case.

Take `CC1CCN(c2cc(-c3cc4ccccc4o3)oc(=O)c2C#N)CC1`: the TGI in the assay with DLD-1 colon, in the assay on DMS 114 small cell lung, with DMS 273 small cell lung and in the assay with KM20L2 colon was above 100 µM each time.

As to `O=c1[nH]c(=S)[nH]c2c(C3OC(CO)C(O)C3O)nsc12` (stereo not given), the TGI with BT-549 breast, with DU-145 prostate, in the assay on HS 578T breast, with MDA-MB-435, in the assay with PC-3 prostate and with T-47D breast was above 100 µM each time.

For the molecule `c1csc(C(NC2=NCCO2)C2CC2)c1` (stereo not given), the TGI in the assay on HS 578T breast, in the assay on MDA-MB-231 breast, with PC-3 prostate and with T-47D breast was above 100 µM each time.

As for `COc1cccc(/C=N/[N-]C(N)=O)c1[O-].[OH3+].[Pd+2]`, the TGI in the assay with KM20L2 colon is above 100 µM.

Regarding `CCN1C(=O)N2C(OC)c3ccccc3C(Br)C2(OC)C1=O` (stereo not given), the TGI with DLD-1 colon, in the assay with DMS 114 small cell lung, in the assay with DMS 273 small cell lung, in the assay on KM20L2 colon and with M19-MEL melanoma was above 100 µM throughout.

On to `CC(=O)Nc1cc(/C=C\C(=O)N2CC(CCl)c3c2cc(N)c2ccccc32)n(C)n1` (stereo not given), for which the GI50 is 0.0225 µM in the assay on BT-549 breast and 0.0131 µM in the assay on MDA-MB-435. In addition, the TGI in the assay with DU-145 prostate was above 100 µM; in the assay on MDA-MB-435 it was 0.0399 µM and 0.0497 µM; in the assay with PC-3 prostate, above 100 µM.

In the case of `Clc1ccc(-c2nnc(-c3nsc4ccccc34)o2)cc1`, the TGI in the assay on DMS 114 small cell lung, in the assay on DMS 273 small cell lung, in the assay on KM20L2 colon and with M19-MEL melanoma was above 100 µM throughout.

For `N=C(N)c1ccc(N=Nc2c(O)ccc3cc(O)ccc23)cc1`, the TGI in the assay on BT-549 breast, in the assay with HS 578T breast, with MDA-MB-231 breast, in the assay on MDA-MB-435 and in the assay on PC-3 prostate was above 100 µM throughout.

As for `O=S(=O)(c1ccc2ccccc2c1)N1CCN(S(=O)(=O)c2ccc3ccccc3c2)CC1`, the TGI with BT-549 breast, with DU-145 prostate, with HS 578T breast, in the assay with MDA-MB-231 breast, in the assay with MDA-MB-435 and in the assay with PC-3 prostate was above 100 µM each time. Further, the TGI in the assay on T-47D breast was above 100 µM.

For `O=C(/C=C\c1ccc(/C=C/C(=O)Nc2cccc(C3=NCCCN3)c2)cc1)Nc1cccc(C2=NCCCN2)c1`, the TGI with DLD-1 colon, with DMS 273 small cell lung, with KM20L2 colon and in the assay on M19-MEL melanoma was above 100 µM in each case.

These data come from PubChem BioAssay (NCI).
